Laboratory results reported in ChEMBL document CHEMBL5321216, “Discovery of bipyridine amide derivatives targeting pRXRα-PLK1 interaction for anticancer therapy” (Eur J Med Chem, 2023).
Calls of active or inactive are those of the source. No cut-off for these calls is given here.

How the values were obtained:
A549 [1] = test: Induction of apoptosis in human A549 cells assessed as dead cells at 62.5 nM incubated for 24 hrs by annexin V-FITC/PI staining based flow cytometry analysis (reference value: 0.75%); format: functional
[2] = Selectivity index, ratio of IC50 for human HCC1937 cells to IC50 for human MDA-MB-231 cells; format: functional
A549 [3] = test: Induction of apoptosis in human A549 cells assessed as early apoptotic cells at 31.25 nM incubated for 24 hrs by annexin V-FITC/PI staining based flow cytometry analysis (reference value: 0.78%); format: functional
MDA-MB-231 [4] = test: Induction of apoptosis in human MDA-MB-231 cells assessed as early apoptotic cells at 31.25 nM incubated for 24 hrs by annexin V-FITC/PI staining based flow cytometry analysis (reference value: 2.03%); format: functional
[5] = Toxicity in BALB/c mouse xenografted with human MDA-MB-231 cells assessed as kidney damage at 25 mg/kg/day, ip administered for 15 days by H and E staining based analysis; format: organism-based; conditions: in vivo, 360 h, time 15 day
[6] = Apparent clearance during terminal phase in Sprague-Dawley rat at 25 mg/kg, ip measured for 48 hrs by LC-MS/MS analysis; format: ADME, organism-based; conditions: in vivo, read-out: CLz/F (converted)
[7] = molecular target: T1, Retinoic acid receptor RXR-gamma (Homo sapiens) (UniProt P48443); test: Antagonist activity at RXRgamma (unknown origin) transfected in human HeLa cells at 31.25 uM incubated for 24 hrs by dual luciferase reporter assay; format: cell-based
T1 sequence (whole entry): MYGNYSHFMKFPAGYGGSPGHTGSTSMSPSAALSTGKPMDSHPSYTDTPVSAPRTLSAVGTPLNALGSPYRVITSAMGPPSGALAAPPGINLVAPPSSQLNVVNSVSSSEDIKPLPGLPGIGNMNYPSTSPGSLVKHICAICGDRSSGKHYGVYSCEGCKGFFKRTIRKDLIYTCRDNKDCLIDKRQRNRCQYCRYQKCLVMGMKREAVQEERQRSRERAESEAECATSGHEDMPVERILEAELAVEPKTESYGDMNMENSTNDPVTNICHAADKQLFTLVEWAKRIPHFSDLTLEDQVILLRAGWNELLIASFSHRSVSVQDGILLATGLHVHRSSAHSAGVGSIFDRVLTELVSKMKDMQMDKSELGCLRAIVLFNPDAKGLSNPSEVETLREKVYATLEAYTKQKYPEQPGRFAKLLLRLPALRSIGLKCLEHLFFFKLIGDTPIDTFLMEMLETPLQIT

MDA-MB-231 [8] = test: Induction of mitotic arrest in human MDA-MB-231 cells assessed as chromosome misalignment at 62.5 nM incubated for 12 hrs by alpha-tubulin/DAPI staining based confocal microscopic analysis; format: functional, cell-based
MDA-MB-231 [9] = test: Inhibition of colony formation in human MDA-MB-231 cells incubated for 48 hrs followed by replacement with normal culture medium and measured after […] by crystal violet staining based assay; format: functional, cell-based; conditions: dose 0.976-250 nM
MDA-MB-231 [10] = test: Antitumor activity against human MDA-MB-231 cells xenografted in BALB/c nude mouse assessed as nuclear shrinkage in tumor at 25 mg/kg/day, ip administered for 15 days by immunohistochemical analysis; format: functional, organism-based; conditions: time 15.0 day
MDA-MB-231 [11] = test: Upregulation of phosphorylated RXRalpha protein level in human MDA-MB-231 cells at 125 to 500 nM incubated for 24 hrs in presence of thermosensitive alkaline phosphatase by Western blot analysis; format: functional, cell-based; conditions: dose 125-500 nM
HeLa [12] = test: Antiproliferative activity against human HeLa cells assessed as inhibition of cell proliferation incubated for 72 hrs by MTT assay; format: functional, cell-based
MDA-MB-231 [13] = test: Antitumor activity against human MDA-MB-231 cells xenografted in BALB/c nude mouse assessed as reduction in Ki67 protein expression at 25 mg/kg/day, ip administered for 15 days by immunohistochemical analysis; format: functional, organism-based; conditions: time 15.0 day
MDA-MB-231 [14] = test: Induction of cell cycle arrest in human MDA-MB-231 cells assessed as accumulation of cells at G2 phase at 15.625 nM incubated for 12 hrs by flow cytometry analysis (reference value: 15.91%); format: functional; conditions: 0.01562 µM
A549 [15] = test: Induction of apoptosis in human A549 cells assessed as early apoptotic cells at 250 nM incubated for 24 hrs by annexin V-FITC/PI staining based flow cytometry analysis (reference value: 0.78%); format: functional
A549 [16] = test: Induction of cell cycle arrest in human A549 cells assessed as accumulation of cells at G1 phase at 125 nM incubated for 12 hrs by flow cytometry analysis (reference value: 59.57%); format: functional
A549 [17] = test: Induction of cell cycle arrest in human A549 cells assessed as accumulation of cells at G1 phase at 31.25 nM incubated for 12 hrs by flow cytometry analysis (reference value: 59.57%); format: functional
MDA-MB-231 [18] = test: Antitumor activity against human MDA-MB-231 cells xenografted in BALB/c nude mouse assessed as reduction in RXRalpha protein expression at 25 mg/kg/day, ip administered for 15 days by immunohistochemical analysis; format: functional, organism-based; conditions: time 15.0 day
[19] = Cytotoxicity against human L02 cells assessed as inhibition of cell proliferation incubated for 72 hrs by MTT assay; format: toxicity, cell-based
HeLa [20] = test: Inhibition of MYC tagged pRXRalpha-FLAG tagged PLK1 (unknown origin) protein-protein interaction transfected in human HeLa cells at 500 nM incubated for 3 hrs by co-immunoprecipitation assay; format: cell-based
HepG2 = test: Antiproliferative activity against human HepG2 cells assessed as cell viability rate at 5 uM incubated for 72 hrs by MTT assay relative to control; format: functional
MDA-MB-231 [21] = test: Induction of cell cycle arrest in human MDA-MB-231 cells assessed as accumulation of cells at G1 phase at 15.625 nM incubated for 12 hrs by flow cytometry analysis (reference value: 43.2%); format: functional; conditions: 0.01562 µM
[22] = Tmax in Sprague-Dawley rat at 25 mg/kg, ip measured for 48 hrs by LC-MS/MS analysis; format: ADME, organism-based; conditions: in vivo
MDA-MB-231 [23] = test: Antitumor activity against human MDA-MB-231 cells xenografted in BALB/c nude mouse assessed as inhibition of tumor growth by measuring chromosome aberrations at 12.5 to 25 mg/kg/day, ip administered for 15 days; format: functional, organism-based; conditions: dose 12.5-25 mg/kg/day, time 15.0 day
A549 [24] = test: Induction of cell cycle arrest in RXRalpha knockout human A549 cells assessed as accumulation of cells at S phase at 125 nM incubated for 12 hrs by DAPI staining based flow cytometry analysis (reference value: 32.74%); format: functional
[25] = Toxicity in BALB/c mouse xenografted with human MDA-MB-231 cells assessed as reduction in body weight at 12.5 to 25 mg/kg/day, ip administered for 15 days; format: organism-based; conditions: in vivo, 360 h, dose 12.5-25 mg/kg/day, time 15 day
MDA-MB-231 [26] = test: Induction of cell cycle arrest in human MDA-MB-231 cells assessed as accumulation of cells at G2 phase at 31.25 nM incubated for 12 hrs by flow cytometry analysis (reference value: 15.91%); format: functional
A549 [27] = test: Induction of cell cycle arrest in human A549 cells assessed as accumulation of cells at G1 phase at 62.5 nM incubated for 12 hrs by flow cytometry analysis (reference value: 59.57%); format: functional

O=C(/C=C/c1ccccc1)Nc1cc(-c2ccnc(N3CCC(CO)CC3)c2)ccn1
Activity (A549 [1]): 2.76%
Ratio IC50 [2]: 35.06
Activity (A549 [3]): 6.28%
Activity (MDA-MB-231 [4]): 2.24%
Activity [5]: Non-Toxic
CL/F [6]: 25.8 mL/min/kg
Activity [7]: inactive
Activity (MDA-MB-231 [8]): Active
inhibition (MDA-MB-231 [9]): Dose-Dependent Effect
Activity (MDA-MB-231 [10]): Active
Activity (MDA-MB-231 [11]): inactive
IC50 (HeLa [12]): 77 nM
Activity (MDA-MB-231 [13]): Active
Activity (MDA-MB-231 [14]): 15.75%
Activity (A549 [15]): 31.3%
Activity (A549 [16]): 16.45%
Activity (A549 [17]): 58.84%
Activity (MDA-MB-231 [18]): Active
IC50 at 72 h [19]: 64 nM
inhibition (HeLa [20]): Active
Activity (HepG2): 42.38%
Activity (MDA-MB-231 [21]): 42.77%
Tmax [22]: 8.4 min
Activity (MDA-MB-231 [23]): Active
Activity (A549 [24]): 36.18%
Activity [25]: Non-Toxic
Activity (MDA-MB-231 [26]): 27.02%
Activity (A549 [27]): 59.43%
